Measured values reported in US20130210881A1, “ANTIMICROBIAL COMPOSITION” (Agency for Science ,Technology and Research, priority 2010, published 2013).

Key:
Assay type in all cases: cell-based
[1] = test system: Escherichia coli (ATCC 25922, gram-negative); assay: Antimicrobial analysis, MIC, E. coli; settings: ATCC25922, 37° C., 24 hours, concentration necessary to inhibit complete cell growth
Experimental: (§1) All bacteria and yeast originated from a −80° C. frozen stock. Bacteria were grown overnight at 37° C. in Tryptic Soy broth (TSB) and yeast was grown overnight at 22° C. in Yeast Mold (YM) broth. Sub-samples of these cultures were grown for three hours further and diluted to an OD600 of 0.1. The bacteria solutions (about 2˜5×10^8 cells/mL) were then added to the 96-well plate and were incubated at 37° C. for 24 hours. All experiments were run in triplicate and the reported minimum inhibitory concentration (MIC) is the concentration necessary to inhibit complete cell growth.

[2] = test system: Candida albicans (ATCC 10231, yeast); assay: Antimicrobial analysis, MIC, C. albicans; settings: ATCC10231, concentration necessary to inhibit complete cell growth
Experimental: as §1

[3] = test system: Bacillus subtilis (ATCC 23857, gram-positive); assay: Antimicrobial analysis, MIC, B. subtilis; settings: ATCC23857, 37° C., 24 hours, concentration necessary to inhibit complete cell growth
Experimental: as §1

SMILES | MIC [1] [µg/mL] | MIC [2] [µg/mL] | MIC [3] [µg/mL]
c1ccc(C[n+]2ccn(Cc3ccc(Cn4cc[n+](Cc5ccccc5)c4)cc3)c2)cc1 [Sample 3a] | > 250 | > 250 | > 250
c1ccc(C[n+]2ccn(Cc3ccccc3Cn3cc[n+](Cc4ccccc4)c3)c2)cc1 [Sample 3b] | > 250 | > 250 | > 250
c1ccc(C[n+]2ccn(Cc3ccc(Cn4cc[n+](Cc5ccc(Cn6cc[n+](Cc7ccccc7)c6)cc5)c4)cc3)c2)cc1 [Sample 3c] | > 250 | > 250 | > 250
C(=C/CCn1cc[n+](Cc2ccccc2)c1)/CCn1cc[n+](CC/C=C\CCn2cc[n+](Cc3ccccc3)c2)c1 [Sample 3d] | > 250 | > 250 | > 250
C(=C/CCn1cc[n+](Cc2ccc(Cn3cc[n+](CC/C=C\CCn4cc[n+](Cc5ccccc5)c4)c3)cc2)c1)/CCn1cc[n+](Cc2ccccc2)c1 [Sample 3f] | > 250 | > 250 | > 250
